Assay results as given in PMC6429263, “Evolution and Antibacterial Evaluation of 8-Hydroxy-cycloberberine Derivatives as a Novel Family of Antibacterial Agents Against MRSA” (Molecules, 2019).
Converted amounts (≈) assume the structure as drawn. Where two headings read alike, the source gives them in different places.

Tests used:
[1] = tested on: S.h ATCC 35982; test: MIC, agar dilution, S.h ATCC 35982; format: cell-based; conditions: Staphylococcus hominis, ATCC35982
[2] = tested on: MRSA ATCC 43300; test: MIC, agar dilution, MRSA ATCC 43300; format: cell-based; conditions: Staphylococcus aureus
[3] = tested on: MRSA 16-34; test: MIC, agar dilution, MRSA 16-34; format: cell-based; conditions: Staphylococcus aureus
[4] = tested on: MRSE 13-3; test: MIC, agar dilution, MRSE 13-3; format: cell-based, S. epidermidis; conditions: Staphylococcus epidermidis
[5] = tested on: MRSA ATCC -BAA-976; test: MIC, agar dilution, MRSA ATCC-BAA-976 (clindamycin-resistant); format: cell-based; conditions: Staphylococcus aureus
[6] = tested on: MSSA 16-1; test: MIC, agar dilution, MSSA 16-1 (clinical isolate); format: cell-based, S. aureus; conditions: Staphylococcus aureus
[7] = tested on: MRSE 16-5; test: MIC, agar dilution, MRSE 16-5; format: cell-based, S. epidermidis; conditions: Staphylococcus epidermidis
[8] = tested on: drug-susceptible strains: MSSA, MSSE, S. saprophyticus, S. hominis; test: MIC across the panel of drug-susceptible Gram-positive strains; format: cell-based; conditions: drug-susceptible Gram-positive strains of Table 1; for MIC: 18 h, read-out: MICs (range over strains)
Description: SAR study for antibacterial activity against drug-susceptible Gram-positive bacteria was initially carried out, taking Lev and compound 1 as reference drugs. […] Bacteria strains used in this study were from the ATCC collection and clinical isolates in Chinese hospitals. The influence of the methylenedioxy ring was explored first, and compounds 6 and 10 were created and tested.

[9] = tested on: VISA ATCC 700698; test: MIC, agar dilution, VISA ATCC 700698; format: cell-based; conditions: Staphylococcus aureus
[10] = tested on: S.s ATCC 15305; test: MIC, agar dilution, S.s ATCC 15305; format: cell-based; conditions: Staphylococcus saprophyticus, ATCC15305
[11] = tested on: MSSE ATCC 12228; test: MIC, agar dilution, MSSE ATCC 12228; format: cell-based, S. epidermidis; conditions: Staphylococcus epidermidis
[12] = tested on: MSSA ATCC 29213; test: MIC, agar dilution, MSSA ATCC 29213; format: cell-based, S. aureus; conditions: Staphylococcus aureus
[13] = tested on: MRSA ATCC-B AA-1708; test: MIC, agar dilution, MRSA ATCC-BAA-1708 (mupA positive); format: cell-based; conditions: Staphylococcus aureus
[14] = tested on: MSSA 15; test: MIC, agar dilution, MSSA 15 (clinical isolate); format: cell-based, S. aureus; conditions: Staphylococcus aureus
[15] = tested on: MRSA 13-23; test: MIC, agar dilution, MRSA 13-23; format: cell-based; conditions: Staphylococcus aureus
[16] = tested on: VISA ATCC 700699; test: MIC, agar dilution, VISA ATCC 700699; format: cell-based; conditions: Staphylococcus aureus
[17] = tested on: MSSE 16-5; test: MIC, agar dilution, MSSE 16-5 (clinical isolate); format: cell-based, S. epidermidis; conditions: Staphylococcus epidermidis
[18] = tested on: MRSA 13-18; test: MIC, agar dilution, MRSA 13-18; format: cell-based; conditions: Staphylococcus aureus
[19] = Stability in whole blood; format: in vitro ADME, SD rat; conditions: for Rr (remaining ratio): whole blood, 37 °C
Method: Fresh blood was collected on the day of experiment from SD rats and pre-warmed in a water bath at 37 °C. 10 mM test compound or Ems stock solutions were prepared in DMSO, and then diluted with 45% MeOH/H2O to achieve 100 μM dosing solutions. Each dosing solution (2 μL) was incubated with 98 µL of blank blood at 37 °C in water bath for 0, 0.5, 1, 3, 7 and 24 h, respectively. At the end of incubation, for each sample, 100 μL water and 800 μL of stop solution (200 ng/mL tolbutamide plus 20 ng/mL buspirone in ACN) were immediately added to precipitate protein and centrifuge at 4,000 rpm for 20 min. An aliquot of supernatant (100 μL) was then extracted, mixed with 200 μL H2O and then shook at 800 rpm for about 10 min before submitting to LC-MS/MS analysis. The experiment was repeated two times.

[20] = S. hominis ATCC 35982, read-out: MIC
[21] = MRSA ATCC-BAA-976, clindamycin-resistant S. aureus, read-out: MIC
[22] = MSSA 16-1, isolated from patients in China, read-out: MIC
[23] = VISA ATCC 700698, read-out: MIC
[24] = S. saprophyticus ATCC 15305, read-out: MIC
[25] = ATCC12228, MSSE ATCC 12228, read-out: MIC
[26] = MRSA ATCC-BAA-1708, mupA positive (mupirocin resistance), read-out: MIC
[27] = MSSA 15, isolated from patients in China, read-out: MIC
[28] = VISA ATCC 700699, read-out: MIC
[29] = MSSE 16-5, isolated from patients in China, read-out: MIC

SMILES	MIC [1, 20]	MIC ([2]; MRSA ATCC 43300, read-out: MIC)	MIC ([3]; MRSA 16-34, read-out: MIC)	MIC ([4]; MRSE 13-3, read-out: MIC)	MIC [5, 21]	MIC [6, 22]	MIC ([7]; MRSE 16-5, read-out: MIC)	MIC [8]	MIC [9, 23]	MIC [10, 24]	MIC [11, 25]	MIC ([12]; MSSA ATCC 29213, read-out: MIC)	MIC [13, 26]	MIC [14, 27]	MIC ([15]; MRSA 13-23, read-out: MIC)	MIC [16, 28]	MIC [17, 29]	MIC ([18]; MRSA 13-18, read-out: MIC)	other results
CCOC(=O)[C@H](CCc1ccccc1)N[C@@H](C)C(=O)N1CCC[C@H]1C(=O)O [Ems, enalapril]	–	–	–	–	–	–	–	–	–	–	–	–	–	–	–	–	–	–	stability in whole blood [19]: completely decomposed; Rr (remaining ratio) ([19]; 0 h): 100%; Rr (remaining ratio) ([19]; 0.5 h): 37.5%; Rr (remaining ratio) ([19]; 1 h): 9.1%; Rr (remaining ratio) ([19]; 3 h): 0%; Rr (remaining ratio) ([19]; 7 h): 0%; Rr (remaining ratio) ([19]; 24 h): 0%
C[C@H]1COc2c(N3CCN(C)CC3)c(F)cc3c(=O)c(C(=O)O)cn1c23 [Lev, levofloxacin, reference compound]	–	32 µg/mL (≈ 88.6 µM)	64 µg/mL (≈ 177 µM)	32 µg/mL (≈ 88.6 µM)	–	0.25 µg/mL (≈ 0.692 µM)	8 µg/mL (≈ 22.1 µM)	–	32 µg/mL (≈ 88.6 µM)	1 µg/mL (≈ 2.77 µM)	–	–	16 µg/mL (≈ 44.3 µM)	–	64 µg/mL (≈ 177 µM)	8 µg/mL (≈ 22.1 µM)	–	32 µg/mL (≈ 88.6 µM)	MIC [1]: 0.125 µg/mL (≈ 0.346 µM); MIC [5]: 0.125 µg/mL (≈ 0.346 µM); MIC ([11]; ATCC12228, 18 h, MSSE ATCC 12228, read-out: MIC): 0.126 µg/mL (≈ 0.349 µM); MIC [12]: 0.125 µg/mL (≈ 0.346 µM); MIC ([14]; MSSA): 0.125 µg/mL (≈ 0.346 µM); MIC [17]: 0.125 µg/mL (≈ 0.346 µM)
COc1ccc2c(c[n+]3c4c2ccc2c5c(cc(c24)CC3)OCO5)c1O [compound 1, reference compound]	–	–	–	–	–	–	–	–	–	–	–	–	–	–	–	–	–	–	MIC [1]: 1 µg/mL; MIC [2]: 0.5 µg/mL; MIC ([3]; MRSA): 0.5 µg/mL; MIC ([4]; MRSE): > 64 µg/mL; MIC [5]: 1 µg/mL; MIC ([6]; MSSA): 1 µg/mL; MIC ([7]; MRSE): 0.5 µg/mL; MIC [9]: 1 µg/mL; MIC [10]: > 64 µg/mL; MIC ([11]; ATCC12228): 0.5 µg/mL; MIC [12]: 0.5 µg/mL; MIC [13]: 0.5 µg/mL; MIC ([14]; MSSA): 4 µg/mL; MIC ([15]; MRSA): 1 µg/mL; MIC [16]: 0.5 µg/mL; MIC [17]: 0.5 µg/mL; MIC ([18]; MRSA): 1 µg/mL
COc1ccc2c(c[n+]3c4c2ccc2c(OC)c(OC)cc(c24)CC3)c1O [compound 6, 1,2-Dimethoxy-8-hydroxy-9-methoxycycloberberine Chloride]	> 64 µg/mL	> 64 µg/mL	> 64 µg/mL	> 64 µg/mL	> 64 µg/mL	> 64 µg/mL	> 64 µg/mL	–	> 64 µg/mL	> 64 µg/mL	> 64 µg/mL	> 64 µg/mL	> 64 µg/mL	> 64 µg/mL	> 64 µg/mL	> 64 µg/mL	> 64 µg/mL	> 64 µg/mL	antimicrobial activity [8]: lost the antimicrobial activities partially or completely

Further lines, with some results ahead:

MIC [1, 20]	MIC ([2]; MRSA ATCC 43300, read-out: MIC)	MIC ([3]; MRSA 16-34, read-out: MIC)	MIC ([4]; MRSE 13-3, read-out: MIC)	MIC [5, 21]	MIC [6, 22]	MIC ([7]; MRSE 16-5, read-out: MIC)	MIC [8]	MIC [9, 23]	MIC [10, 24]	MIC [11, 25]	MIC ([12]; MSSA ATCC 29213, read-out: MIC)	MIC [13, 26]	MIC [14, 27]	MIC ([15]; MRSA 13-23, read-out: MIC)	MIC [16, 28]	MIC [17, 29]	MIC ([18]; MRSA 13-18, read-out: MIC)	SMILES	other results
8 µg/mL	16 µg/mL	8 µg/mL	8 µg/mL	16 µg/mL	8 µg/mL	16 µg/mL	8 to 16 µg/mL	8 µg/mL	8 µg/mL	16 µg/mL	8 µg/mL	8 µg/mL	16 µg/mL	16 µg/mL	8 µg/mL	8 µg/mL	16 µg/mL	COc1ccc2c(c[n+]3ccc4cc5c(c6c(Cc7ccccc7)cc2c3c46)OCO5)c1O [13a, 1,2-Methylenedioxy-8-hydroxy-9-methoxy-13-benzylcycloberberine chloride]	–
8 µg/mL	8 µg/mL	4 µg/mL	64 µg/mL	4 µg/mL	4 µg/mL	4 µg/mL	2 to 8 µg/mL	4 µg/mL	16 µg/mL	8 µg/mL	8 µg/mL	8 µg/mL	8 µg/mL	8 µg/mL	8 µg/mL	4 µg/mL	8 µg/mL	COc1ccc2c(c[n+]3ccc4cc5c(c6c(Cc7ccc(Cl)cc7)cc2c3c46)OCO5)c1O [13e, 1,2-Methylenedioxy-8-hydroxy-9-methoxy-13-p-chlorobenzylcycloberberine chloride]	–
8 µg/mL	8 µg/mL	4 µg/mL	4 µg/mL	8 µg/mL	4 µg/mL	4 µg/mL	2 to 16 µg/mL	4 µg/mL	16 µg/mL	4 µg/mL	4 µg/mL	4 µg/mL	4 µg/mL	8 µg/mL	4 µg/mL	2 µg/mL	8 µg/mL	COc1ccc2c(c[n+]3ccc4cc5c(c6c(Cc7cccc(C)c7)cc2c3c46)OCO5)c1O [13h, 1,2-Methylenedioxy-8-hydroxy-9-methoxy-13-m-methylbenzylcycloberberine chloride]	–
8 µg/mL	8 µg/mL	4 µg/mL	32 µg/mL	8 µg/mL	4 µg/mL	8 µg/mL	4 to 16 µg/mL	8 µg/mL	16 µg/mL	8 µg/mL	8 µg/mL	4 µg/mL	8 µg/mL	8 µg/mL	4 µg/mL	4 µg/mL	16 µg/mL	COc1ccc2c(c[n+]3ccc4cc5c(c6c(Cc7ccccc7[N+](=O)[O-])cc2c3c46)OCO5)c1O [13p, 1,2-Methylenedioxy-8-hydroxy-9-methoxy-13-o-nitrobenzylcycloberberine chloride]	–
